Drawing on US20240150365A1 (Hotspot Therapeutics, Inc., priority 2022, published 2024), this text covers IC50 for 25 compounds.

In one assay the target is T1, MALT1 (Homo sapiens, UniProt Q9UDY8).
T1 construct: Avi-tagged FL MALT-1 (Pharmaron, stored at −70° C.); Avi tag
T1 sequence (Q9UDY8 1-824): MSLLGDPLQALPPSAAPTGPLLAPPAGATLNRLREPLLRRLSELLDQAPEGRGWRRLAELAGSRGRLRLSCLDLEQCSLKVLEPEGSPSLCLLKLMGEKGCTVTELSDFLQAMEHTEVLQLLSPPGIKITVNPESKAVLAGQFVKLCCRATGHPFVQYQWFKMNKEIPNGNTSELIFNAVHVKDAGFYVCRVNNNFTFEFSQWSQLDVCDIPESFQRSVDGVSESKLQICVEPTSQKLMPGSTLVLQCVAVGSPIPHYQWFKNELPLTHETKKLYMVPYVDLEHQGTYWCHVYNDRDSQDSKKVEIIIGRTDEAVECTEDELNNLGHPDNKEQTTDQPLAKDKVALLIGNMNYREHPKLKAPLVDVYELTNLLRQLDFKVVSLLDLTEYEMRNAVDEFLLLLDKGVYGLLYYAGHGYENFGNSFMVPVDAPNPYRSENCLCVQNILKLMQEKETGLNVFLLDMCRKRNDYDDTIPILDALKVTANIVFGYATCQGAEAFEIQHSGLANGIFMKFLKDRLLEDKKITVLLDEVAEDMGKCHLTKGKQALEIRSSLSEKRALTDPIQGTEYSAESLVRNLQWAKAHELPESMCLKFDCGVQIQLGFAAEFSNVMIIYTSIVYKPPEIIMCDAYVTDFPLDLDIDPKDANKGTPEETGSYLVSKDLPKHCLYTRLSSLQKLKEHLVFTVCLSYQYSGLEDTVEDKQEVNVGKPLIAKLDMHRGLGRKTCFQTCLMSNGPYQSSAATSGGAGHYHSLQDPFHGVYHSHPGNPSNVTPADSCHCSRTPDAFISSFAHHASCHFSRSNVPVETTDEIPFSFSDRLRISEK
As to the kind of experiment: MALT-1 Fluorogenic Peptide Cleavage Assay (MALT1 inhibition assay). Type of assay: biochemical. As to conditions: Avi-tagged FL MALT-1, Ac-LRSR-AMC peptide substrate, 30 min pre-incubation, 90 min reaction. In short, it runs like this:
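IC50 from sigmoidal fits of % inhibition, with fluorescence (ex 342, em 441 nm) from AMC released from the quenched LRSR peptide after 90 min at room temperature. Full-length Avi-tagged MALT1 saw compound for 30 min first; final DMSO 2%.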

Another assay concerns NF-kB. As to the kind of experiment: NF-kB reporter assay in Jurkat cells stimulated with aCD3/aCD28/PMA. Type of assay: cell-based. As to conditions: Homo sapiens, Jurkat, read-out: NF-kB Reporter Assay IC50. The method in brief:
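Stimulation used final aCD3 5 μg/mL, aCD28 5 μg/mL and PMA 0.03 μg/mL for 4 hr at 37° C, after 1 hr compound pretreatment of 25,000 serum-starved Jurkat cells per well. One-Glo luminescence gave IC50 values.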

[1] abbreviates: Jurkat cells, 1 hr compound incubation, aCD3/aCD28/PMA stimulation 4 hr, One-Glo readout.

Read-outs that look alike come from different tables or passages of the source. Some results are limits rather than exact numbers.

A word on the IC50: it is the concentration that gives 50% inhibition. Regarding `Cc1ncc2cccc(NS(=O)(=O)c3ccc(-n4cc(C(F)(F)F)cn4)nc3)n12` [Example I-199, N-(3-methylimidazo[1,5-a]pyridin-5-yl)-6-(4-(trifluoromethyl)-1H-pyrazol-1-yl)pyridine-3-sulfonamide], the IC50 at MALT1 is more than 2.5 µM; in the assay on NF-kB (setting [1]), 1 to 2.5 µM.
On the same counts, the results for `COc1ncc2cnn(C)c2c1NS(=O)(=O)c1ccc(-c2cc(C(F)(F)F)n[nH]2)nc1` [Example I-200, N-(6-Methoxy-1-Methyl-1H-Pyrazolo[4,3-C]Pyridin-7-yl)-6-(3-(Trifluoromethyl)-1H-Pyrazol-5-yl)Pyridine-3-Sulfonamide] are less than 0.4 µM and less than 0.4 µM.
On the same counts, the results for `Cn1[nH]c(=O)c2cccc(NS(=O)(=O)c3ccc(-n4cc(C(F)(F)F)cn4)nc3)c21` [Example I-201, N-(1-Methyl-3-Oxo-2,3-Dihydro-1H-Indazol-7-yl)-6-(4-(Trifluoromethyl)-1H-Pyrazol-1-yl)Pyridine-3-Sulfonamide] are more than 2.5 µM and more than 2.5 µM.
On the same counts, the results for `COc1ccc2cnn(C)c2c1NS(=O)(=O)c1ccc(-n2cc(C)n(C)c2=O)nc1` [Example I-202, 6-(3,4-Dimethyl-2-Oxo-2,3-Dihydro-1H-Imidazol-1-yl)-N-(6-Methoxy-1-Methyl-1H-Indazol-7-yl)Pyridine-3-Sulfonamide] are 0.4 to 1 µM and less than 0.4 µM.
On to `COc1ccc(Cc2ccc3c(c2N)c(=O)n(S(=O)(=O)c2ccc(-n4cc(C(F)(F)F)cn4)nc2)n3C)cc1` [Example I-203], for which the results for the IC50 against MALT1 and with NF-kB (setting [1]) were more than 2.5 µM and less than 0.4 µM, respectively.
On the same counts, the results for `COc1ncc2cnn(C)c2c1NS(=O)(=O)c1ccc(-c2cc(C(F)F)n[nH]2)nc1` [Example I-204, 6-(3-(Difluoromethyl)-1H-Pyrazol-5-yl)-N-(6-Methoxy-1-Methyl-1H-Pyrazolo[4,3-C]Pyridin-7-yl)Pyridine-3-Sulfonamide] are less than 0.4 µM and 1 to 2.5 µM.
The corresponding values for `COc1ncc2cnn(C)c2c1NS(=O)(=O)c1ccc(-c2cc(C3CC3)n[nH]2)nc1` [Example I-205, 6-(3-Cyclopropyl-1H-Pyrazol-5-yl)-N-(6-Methoxy-1-Methyl-1H-Pyrazolo[4,3-C]Pyridin-7-yl)Pyridine-3-Sulfonamide] are 1 to 2.5 µM and 1 to 2.5 µM.
On the same counts, the results for `[2H]C([2H])([2H])n1ncc2ccc(OC)c(NS(=O)(=O)c3ccc(-n4cc(C)cn4)nc3)c21` [Example I-206, N-(6-Methoxy-1-(Methyl-D3)-1H-Indazol-7-yl)-6-(4-Methyl-1H-Pyrazol-1-yl)Pyridine-3-Sulfonamide] are less than 0.4 µM and less than 0.4 µM.
On to `Cn1ncc2cccc(NS(=O)(=O)c3ccc(-n4ccc(C5CC5)n4)nc3)c21` [Example I-207, 6-(3-Cyclopropyl-1H-Pyrazol-1-yl)-N-(1-Methyl-1H-Indazol-7-yl)Pyridine-3-Sulfonamide], for which the IC50 against MALT1 was 1 to 2.5 µM; in the assay with NF-kB (setting [1]), less than 0.4 µM.
In the case of `Cn1ncc2cccc(NS(=O)(=O)c3ccc(-n4cc(C5CC5)cn4)nc3)c21` [Example I-208, 6-(4-Cyclopropyl-1H-Pyrazol-1-yl)-N-(1-Methyl-1H-Indazol-7-yl)Pyridine-3-Sulfonamide], the IC50 against MALT1 is 1 to 2.5 µM; with NF-kB (setting [1]), less than 0.4 µM.
On to `Cn1ccn(-c2ccc(S(=O)(=O)Nc3cccc4cnn(C)c34)cn2)c1=O` [Example I-209, N-(1-Methyl-1H-Indazol-7-yl)-6-(3-Methyl-2-Oxo-2,3-Dihydro-1H-Imidazol-1-yl)Pyridine-3-Sulfonamide], for which the 50% inhibitory concentration (IC50) was more than 2.5 µM on MALT1 and less than 0.4 µM with NF-kB (setting [1]).
On the same counts, the results for `COc1ccc(-c2ccc(S(=O)(=O)Nc3cccc4cnn(C)c34)cn2)cn1` [Example I-210, 6′-Methoxy-N-(1-Methyl-1H-Indazol-7-yl)-[2,3′-Bipyridine]-5-Sulfonamide] are more than 2.5 µM and less than 0.4 µM.
The corresponding values for `COc1ncc2cnn(C)c2c1NS(=O)(=O)c1ccc(-n2nccc2C(F)(F)F)nc1` [Example I-211, N-(6-Methoxy-1-Methyl-1H-Pyrazolo[4,3-C]Pyridin-7-yl)-6-(5-(Trifluoromethyl)-1H-Pyrazol-1-yl)Pyridine-3-Sulfonamide] are more than 2.5 µM and 0.4 to 1 µM.
The corresponding values for `[2H]C([2H])([2H])n1ncc2ccc(OC)c(NS(=O)(=O)c3ccc(-n4cc(Cl)cn4)nc3)c21` [Example I-212, 6-(4-Chloro-1H-Pyrazol-1-yl)-N-(6-Methoxy-1-(Methyl-D3)-1H-Indazol-7-yl)Pyridine-3-Sulfonamide] are less than 0.4 µM and less than 0.4 µM.
As to `[2H]C([2H])([2H])Oc1ccc2cnn(C)c2c1NS(=O)(=O)c1ccc(-n2cc(Cl)cn2)nc1` [Example I-213, 6-(4-Chloro-1H-Pyrazol-1-yl)-N-(6-(Methoxy-D3)-1-Methyl-1H-Indazol-7-yl)Pyridine-3-Sulfonamide], the 50% inhibitory concentration (IC50) against MALT1 and in the assay with NF-kB (setting [1]) was less than 0.4 µM throughout.
Take `Cn1ncc2cccc(NS(=O)(=O)c3ccc(-c4cnc(C(F)(F)F)s4)nc3)c21` [Example I-214, N-(1-Methyl-1H-Indazol-7-yl)-6-(2-(Trifluoromethyl)Thiazol-5-yl)Pyridine-3-Sulfonamide]: the results for the IC50 against MALT1 and in the assay with NF-kB (setting [1]) were 0.4 to 1 µM and less than 0.4 µM, respectively.
Regarding `COCCn1ncc2cccc(NS(=O)(=O)c3ccc(-n4ccc(C(C)C)n4)nc3)c21` [Example I-215, 6-(3-isopropyl-1H-pyrazol-1-yl)-N-(1-(2-methoxyethyl)-1H-indazol-7-yl)pyridine-3-sulfonamide], the half-maximal inhibitory concentration (IC50) at MALT1 and with NF-kB (setting [1]) was more than 2.5 µM each time.
Turning to `COCCn1ncc2cccc(NS(=O)(=O)c3ccc(-n4nccc4C4CC4)nc3)c21` [Example I-216, 6-(5-Cyclopropyl-1H-Pyrazol-1-yl)-N-(1-(2-Methoxyethyl)-1H-Indazol-7-yl)Pyridine-3-Sulfonamide], the IC50 on MALT1 and with NF-kB (setting [1]) was more than 2.5 µM each time.
Turning to `COCCn1ncc2cccc(NS(=O)(=O)c3ccc(-n4cc(C)cn4)nc3)c21` [Example I-217, N-(1-(2-Methoxyethyl)-1H-Indazol-7-yl)-6-(4-Methyl-1H-Pyrazol-1-yl)Pyridine-3-Sulfonamide], the IC50 against MALT1 and with NF-kB (setting [1]) was more than 2.5 µM throughout.
Take `COCCn1ncc2cccc(NS(=O)(=O)c3ccc(-c4cnn(C)c4C)nc3)c21` [Example I-218, 6-(1,5-Dimethyl-1H-Pyrazol-4-yl)-N-(1-(2-Methoxyethyl)-1H-Indazol-7-yl)Pyridine-3-Sulfonamide]: the IC50 at MALT1 and with NF-kB (setting [1]) was more than 2.5 µM in each case.
In the case of `Cn1ncc2cccc(NS(=O)(=O)c3ccc(-c4ccc(Cl)nc4)nc3)c21` [Example I-219, 6′-Chloro-N-(1-Methyl-1H-Indazol-7-yl)-[2,3′-Bipyridine]-5-Sulfonamide], the IC50 at MALT1 was more than 2.5 µM; with NF-kB (setting [1]), less than 0.4 µM.
The corresponding values for `Cn1ncc2cccc(NS(=O)(=O)c3ccc(-c4cccnc4Cl)nc3)c21` [Example I-220, 2′-Chloro-N-(1-Methyl-1H-Indazol-7-yl)-[2,3′-Bipyridine]-5-Sulfonamide] are more than 2.5 µM and 0.4 to 1 µM.
As for `CN(C)c1ncccc1-c1ccc(S(=O)(=O)Nc2cccc3cnn(C)c23)cn1` [Example I-221, 2′-(Dimethylamino)-N-(1-Methyl-1H-Indazol-7-yl)-[2,3′-Bipyridine]-5-Sulfonamide], the IC50 on MALT1 was more than 2.5 µM; with NF-kB, 1 to 2.5 µM.
Turning to `COc1ccc2cnn(C)c2c1NS(=O)(=O)c1ccc(N2CCOC2=O)nc1` [Example I-222, N-(6-Methoxy-1-Methyl-1H-Indazol-7-yl)-6-(2-Oxooxazolidin-3-yl)Pyridine-3-Sulfonamide], the IC50 is more than 2.5 µM on MALT1 and less than 0.4 µM in the assay with NF-kB (setting [1]).
The corresponding values for `COc1ccc2cnn(C)c2c1NS(=O)(=O)c1ccc(N2CC(C)(C)OC2=O)nc1` [Example I-223, 6-(5,5-Dimethyl-2-Oxooxazolidin-3-yl)-N-(6-Methoxy-1-Methyl-1H-Indazol-7-yl)Pyridine-3-Sulfonamide] are more than 2.5 µM and less than 0.4 µM.
